The source of these data is PubChem BioAssay (NCI).

The structures appear in SMILES notation. “And” between values parts separate entries of the source, which are not always exact repeats. Equal entries are not always repeated.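 Dose response: 5 concentrations. Exposure: 48 h. Format: 96-well plates. Endpoint: linear interpolation; highest concentration if not reached. GI50 marks 50% less growth. TGI is the concentration that stops growth completely.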 Some results are limits rather than exact numbers.

Test in all cases: NCI-60 cell line screen, 48 h
Test [1] deals with RXF 393 renal.
In test [2] the test system is SF-268 CNS.
In test [3] the test system is NCI-H23 lung.
In test [4] the test system is SF-295 CNS.
The test system of test [5] is CAKI-1 renal.
In test [6] the test system is NCI-H460 lung.
Test [7] has as its system SNB-19 CNS.
The subject of test [8] is HL-60(TB) leukemia.
Test [9] deals with COLO 205 colon.
In test [10] the test system is 786-0 renal.

For `C[C@]12CCc3sc(Nc4ccc(OC(F)(F)F)cc4)nc3C1=CC[C@@H]1[C@@H]2CC[C@]2(C)C(=O)CC[C@@H]12`, the GI50 is 0.5 µM in test [1]; 3.01 µM in [2]; 3.73 µM in [3]; 0.7 µM in test [4]; 3.21 µM in test [5]; 3.25 µM in [6]. Moreover, the GI50 is 2.12 µM in [7], 1.93 µM in [8], 2.61 µM in test [9] and 1.45 µM in test [10]. Besides, the TGI in test [1] is 2.21 µM; in test [2] it was 12.3 µM; in test [3] it was 21.7 µM; in test [4], 2.44 µM; in [5], 13.2 µM; in [6], 11.8 µM. Besides, the TGI was 9.93 µM in [7], 4.44 µM in test [8], 6.76 µM in [9] and 3.28 µM in test [10].
Regarding `CCC1=CCN(c2cc(C)ccn2)OC1c1ccc(OC)cc1` (configuration not stated), the TGI in test [1] is 58.1 µM; in test [2], > 100 µM; in [3], > 100 µM; in test [4] it was 70.8 µM; in test [5], > 100 µM; in test [6] it was > 100 µM. The TGI in test [7] was > 100 µM; in test [8], 50.6 µM; in [9], 33.6 µM; in test [10], > 100 µM.
For `CCN1C(=O)c2ccc3c4c(ccc(c24)C1=O)C(=O)N(CCCNCc1ccccc1OC)C3=O`, the GI50 is 0.671 µM in test [1]; 1.15 µM in test [2]; 0.782 µM in test [3]; 0.377 µM in test [4]; 0.791 µM in [5]; 0.437 µM in test [6]. In addition, the GI50 in test [7] was 1.33 µM; in [8] it was 1.11 µM; in test [9], 0.201 µM; in [10], 1.33 µM. The TGI in test [1] was 2.04 µM; in test [2], 5.75 µM; in test [3], 3.68 µM; in test [4] it was 1.37 µM; in test [5] it was 2.47 µM; in test [6], 2.09 µM. Besides, the TGI turned out to be 2.97 µM in test [7], 3.6 µM in test [8], 0.382 µM in test [9] and 5.88 µM in [10].
For `O=C(/C=C/c1ccccc1)Nc1ncc(Cc2ccccc2Cl)s1`, the GI50 is 0.223 µM in test [1]; 1.8 µM in test [2]; 0.708 µM in test [3]; 0.282 µM in test [4]; 0.329 µM in test [5]; 0.333 µM in [6]. In addition, the GI50 was 0.404 µM in test [7], 0.285 µM in test [8], 0.366 µM in test [9] and 0.774 µM in [10]. In addition, the TGI in test [1] was 0.73 µM; in test [2], > 100 µM; in [3], > 100 µM; in test [4], 11.7 µM; in test [5], > 100 µM; in test [6], > 100 µM. The TGI is > 100 µM in test [7], 0.872 µM in test [8], > 100 µM in [9] and > 100 µM in test [10].
With `CC(=O)Oc1c(C)c(-c2ccccc2)c(C)c(-c2ccccc2)c1C(=S)c1ccccc1`, the TGI in test [1], in test [2], in test [3], in test [4], in test [6] and in test [7] was > 100 µM in each case. Moreover, the TGI in [8], in test [9] and in test [10] was > 100 µM throughout.
In the case of `CCCCCCCCCCCCCCCCCCOC[C@H](COP(=O)(O)O[C@H]1[C@H](O)[C@@H](O)[C@H](O)C[C@H]1O)OC`, the GI50 in [1] was 35.4 µM and 5.76 µM; in [2], > 100 µM and 15 µM; in test [3], > 100 µM and 19.3 µM; in test [4] it was 98.4 µM and 15.3 µM; in test [5], 87.4 µM and 9.51 µM; in test [6], 79.4 µM and 11.7 µM. The GI50 in test [8] was 35 µM and 9.09 µM; in [9] it was 26.6 µM and 11 µM; in test [10] it was > 100 µM and 15.9 µM. Further, the TGI was > 100 µM and 21.1 µM in test [1]; > 100 µM and 29.7 µM in test [2]; > 100 µM and 35 µM in test [3]; > 100 µM and 30.8 µM in test [4]; > 100 µM and 25.1 µM in test [5]; > 100 µM and 26.1 µM in [6]. Further, the TGI was > 100 µM and 23.3 µM in [8]; > 100 µM and 24.2 µM in [9]; > 100 µM and 57.8 µM in test [10].
As for `CN(C)C/C=C/C(=O)Nc1ccc(C(=O)N[C@@]2(C)CCC[C@@H](Nc3ncc(Cl)c(-c4c[nH]c5ccccc45)n3)C2)nc1`, the GI50 is 0.0144 µM in [1]; < 0.01 µM in [3]; 0.0126 µM in [4]; < 0.01 µM in test [5]; < 0.01 µM in test [6]; 0.0163 µM in test [7]. Further, the results for the GI50 in test [8], in [9] and in [10] were 0.0145 µM, 0.01 µM and < 0.0146 µM, respectively. For the same compound, the TGI came out at 0.0344 µM in test [1]; 0.0523 µM in test [3]; 1.1 µM in test [4]; 1.11 µM in test [5]; 0.386 µM in test [6]; 1.07 µM in [7]. Further, the TGI in [8] was 0.0665 µM; in test [9], 0.026 µM; in test [10] it was 0.236 µM.
In the case of `Nc1n[nH]c2cccc(C#Cc3cccc(NC(=O)c4cccc(C(F)(F)F)c4)c3)c12`, the GI50 in test [1] is 1.65 µM; in test [2], 3.82 µM; in [3], 2.86 µM; in [4], 2.68 µM; in test [6], 4.11 µM; in test [7], 6.13 µM. Further, the GI50 in [8] was 0.875 µM; in test [9] it was 3.65 µM; in test [10], 3.03 µM. Moreover, the TGI in test [1] is 3.97 µM; in test [2] it was 16.3 µM; in [3] it was 15.8 µM; in [4], 10.5 µM; in test [6] it was 15.7 µM; in [7] it was 18.5 µM. Moreover, the TGI in test [8] was determined as 4.55 µM; in [9], 15.1 µM; in test [10] it was 8.74 µM.
Turning to `CC1(O)C(C)(O)C2(C)O[Te]3(OC12C)OC1(C)C(C)(O)C(C)(O)C1(C)O3` (configuration not stated), the TGI in [1] is 37.6 µM; in test [3] it was 29.7 µM; in test [4], > 100 µM; in [6], 47.9 µM; in test [7] it was > 100 µM; in test [8] it was 31.5 µM. Also, the TGI in [9] and in [10] was > 100 µM each time.
For the compound `O=S(=O)(C1=CC(S(=O)(=O)c2ccccc2)CN(Cc2ccccc2)C1c1cccc2ccccc12)c1ccccc1` (configuration not stated), the TGI in [1], in [2], in [3], in test [4], in test [5] and in test [6] was > 69 µM in each case. Besides, the TGI in test [7], in test [8] and in [10] was > 69 µM throughout.
Take `O=C1C=C(Nc2ccccc2C(=O)CC(=O)C(=O)Nc2cccc([N+](=O)[O-])c2)c2ccccc2C1=O`: the TGI in test [1] is > 100 µM; in [2], 88.6 µM; in [3], > 100 µM; in test [5], > 100 µM; in test [6], > 100 µM; in test [7], > 100 µM. For the same compound, the TGI in [8] was 15.6 µM; in test [9] it was > 100 µM; in [10], > 100 µM.
For the compound `Cc1ccc(S(=O)(=O)OC2CC=CC2)cc1`, the TGI in test [1], in test [4], in [5], in [6], in [7] and in test [8] was > 100 µM in each case. Also, the TGI in test [9] and in test [10] was > 100 µM throughout.
Consider `O=C(Nc1cccc(O)c1)C(=O)C1C(=O)NC(=S)NC1=O`, for which the TGI in test [1], in [2], in [3], in test [4], in [5] and in test [7] was > 100 µM each time. Besides, the TGI in [8], in test [9] and in [10] was > 100 µM throughout.
Turning to `O=C1N/C(=C\[N+](=O)[O-])c2ccccc21`, the TGI in [1], in [2], in test [3], in test [4], in test [6] and in [7] was > 100 µM throughout. In addition, the TGI in test [8], in test [9] and in [10] was > 100 µM in each case.
For the compound `CCN(CC)CCNC(Cc1ccccc1)c1ccc(OCc2ccccc2)cc1` (configuration not stated), the GI50 was 3.83 µM in [1]; 7.57 µM in [2]; 2.04 µM in test [4]; 4.52 µM in test [5]; 3.56 µM in test [6]; 9.65 µM in [7]. Also, the GI50 in test [8] was 2.77 µM; in [9] it was 1.79 µM; in [10], 3.61 µM. The TGI amounted to 18.1 µM in test [1]; 22.3 µM in test [2]; 4.57 µM in test [4]; 16.7 µM in test [5]; 12.9 µM in [6]; 22.8 µM in test [7]. Besides, the values for the TGI in [8], in test [9] and in [10] were 7.79 µM, 3.4 µM and 17.9 µM, respectively.
`CC/C=C\C[C@H]1CC=C2C(=O)C=C[C@@H]2CC=CCCCC(=O)O[C@@H](CCCCC)CC=C2C(=O)C=C[C@@H]2CC=CCCCC(=O)O[C@@H](CCCCC)CC=C2C(=O)C=C[C@@H]2CC=CCCCC(=O)O[C@@H](CCCCC)CC=C2C(=O)C=C[C@@H]2CC=CCCCC(=O)O1`: the GI50 in [1] is 1.37 µM; in [2], 2.62 µM; in test [3] it was 2.34 µM; in [4] it was 2.02 µM; in [6] it was 2.45 µM; in test [7] it was 2.83 µM. Also, the GI50 in [8] was 2.09 µM; in test [9], 1.64 µM; in test [10], 2.29 µM. Besides, the TGI was 2.87 µM in test [1]; > 7.9 µM in test [2]; > 7.9 µM in test [3]; 6.32 µM in test [4]; > 7.9 µM in test [6]; > 7.9 µM in test [7]. Besides, the TGI in test [8] came out at 6.26 µM; in test [9], 3.6 µM; in [10], 6.51 µM.
On to `CC(=O)C1C(c2ccccc2)C2(C)OC(=O)C(C#N)C12C` (configuration not stated), for which the TGI in test [1], in test [2], in test [3], in test [4], in test [6] and in test [7] was > 100 µM each time. Also, the TGI in test [8], in test [9] and in test [10] was > 100 µM in each case.
As to `C[C@]12CC=CC(=O)[C@@]1(C)CCC(=O)C2`, the TGI in [1], in test [2], in [3], in [4], in test [5] and in test [6] was > 100 µM in each case. Further, the TGI in [7], in test [8] and in test [10] was > 100 µM throughout.
Regarding `CCCC1(CC(=O)O)OCCc2c1[nH]c1ccccc21` (configuration not stated), the TGI in [1], in test [2], in test [3], in [4], in [5] and in test [7] was > 100 µM each time. Moreover, the TGI in test [8], in test [9] and in [10] was > 100 µM throughout.
On to `O=C(NC(=O)c1c(F)cccc1F)Nc1cccc(Oc2ncc(Cl)cn2)c1`, for which the TGI in test [1] was 79.5 µM; in test [2], 77.3 µM; in test [3], > 100 µM; in test [4], > 85 µM; in [5], > 100 µM; in [7], > 86.3 µM. Also, the TGI in test [8], in test [9] and in test [10] was > 100 µM each time.
